For this experiment, the system named is has-2 expression. Nature of the experiment: has-2 expression in human skin fibroblasts by real time quantitative PCR, 6 hours incubation. Format: cell-based. The settings on record: 2 μM, vs untreated. As to the method: Human skin fibroblast cells are spread in DMEM medium containing 10% of fetal bovine serum (FBS) and antibiotics (penicillin/streptomycin) and incubated until a 90% confluence is reached. The medium is removed and replaced by fresh medium comprising resveratrol (RSV) or resveratrol oligomers (OR) respectively. Table 1 below indicates the different conditions tested and concentrations used. [table] Human skin fibroblast cells are incubated for 6 hours at 37° C. under 5% CO2. The ARN extraction is made by using the ARN Omega extraction kit. 1 μg of ARN is used and retranscribed into complementary DNA using the ADNc Bio-Rad iScript™ synthesis kit followed by a real time quantitative PCR quantification. The PCR reactions have been carried out using Fast-Start™ DNA Master SYBR Green I real-time PCR kit (Roche Molecular Biochemicals). Each PCR has been carried out in a final volume of 20 μl containing 10 μl of SYBR Green mix 2× (Fast start DNA master SYBR green+Taq DNA polymerase), 2 μl of 10 μM primer mixture (finally 1 μM) and 8 μl of ADNc solution (50 ng). The primers used are described in table 2 below. [table]

`Oc1ccc(C=Cc2cc(O)cc(O)c2)cc1` [resveratrol, 3,5,4′-trihydroxystilbene]: the “increase of has-2 expression by fibroblasts” value is given as 18% and the “induction of has-2 expression by fibroblasts, factor” value came out at 1.18.

Values taken from patent US10470987B2, “Process for stimulating hyaluronic acid synthesis” (TOMCAT INTERNATIONAL LIMITED, priority 2015, dated 2019).
